Reference: US9986723B2, “Screen and use of therapeutics for pancreatic ductal adenocarcinoma” (The Board of Regents of the University of Texas System, priority 2014, dated 2018)

Experiments:
ASPC = assay: MTS cell growth assay, gemcitabine +/- warfarin; assay type: cell-based, human; conditions: warfarin 2 μM
Method: (§1) Cytotoxicity and augmentation of chemotherapy response was measured by MTS assays conducted in 96-well plates; cells were plated on day 0 and drug was added on day 1 in 4-fold dilutions. Maximum concentration of 2,000 nmol/L for gemcitabine was used with or without the addition of a constant concentration of 2 μM warfarin or 1.1 μM 10C9. Relative cell number was determined by adding MTS (Promega; final concentration […]), incubating for 1 to 3 hours at 37° C., and reading absorbance. Drug sensitivity curves and IC50s were calculated using in-house software.

Panc1 = assay: MTS cell growth assay, gemcitabine +/- warfarin; assay type: cell-based, human; conditions: warfarin 2 μM
Method: as §1

KIC tumors = assay: Low dose warfarin in drinking water, spontaneous genetic PDA model; assay type: in vivo, mouse; conditions: warfarin 0.5 mg/L drinking water, 4 weeks from 3 weeks of age
Method: (FIG. 23A) Primary tumor burden after therapy with warfarin. Therapy was initiated when implanted tumors were visible by ultrasound (˜10 mm^3) and consisted of control (normal drinking water) or warfarin, administered in the drinking water at 0.5 mg/L (immunocompetent mice: Pan02 (n=4, control; 3, warfarin), KIC (n=10, control; 8, warfarin)) or 1 mg/L (Panc-1 (n=10, control; 8, warfarin), AsPC-1 (n=8, control; 6, warfarin), Capan-1 (n=10, control; 7, warfarin)) and continued for 2-4 weeks until control mice were moribund. Therapy in KIC mice was initiated at 3 weeks of age and continued for 4 weeks. (FIG. 23B) Metastases were determined grossly upon sacrifice and confirmed by histological evaluation of the liver. […] Incidence of metastasis is also indicated. […] Tumor volume determined by serial ultrasound. […] Therapy with mAb 10C9 (250 μg 2×/week) was initiated when tumors were established as above and persisted for 4 weeks. […] Error bars indicate s.e.m.
Animal studies. […] Mice with established tumors, as determined by sonography were randomized to receive normal drinking water or water containing 1 mg/L (˜3.0 μM) warfarin for experiments in immunocompromised mice and 0.5 mg/L (˜1.5 μM) in experiments in immunocompetent animals with or without gemcitabine 25 mg/kg twice weekly depending on experimental design.

[1] = test system: orthotopic C5LM2 or Mia PaCa-2 tumors; assay: Gemcitabine combinations in mice bearing established orthotopic tumors; assay type: in vivo, mouse; conditions: combined with gemcitabine
Source text: Animal studies. All animals were housed in a pathogen-free facility with 24-hour access to food and water. Experiments were approved by, and conducted in accordance with, an IACUC approved protocol at UT Southwestern. LSL-Kras^G12D; Cdkn2a^lox/lox; p48^Cre (KIC) mice were generated as previously described (Ostapoff et al., 2014). Four- to 6-week-old female NOD/SCID and C57/B16 mice were obtained from an on campus supplier. A total of 1×10^6 AsPc-1, Panc-1, Mia Paca2, Capan-1, C5LM2, Mia shLuc and Mia shAxl or 5×10^5 Pan02 cells, were injected orthotopically as described (Ostapoff et al., 2014). Mice with established tumors, as determined by sonography were randomized to receive normal drinking water or water containing 1 mg/L (˜3.0 μM) warfarin for experiments in immunocompromised mice and 0.5 mg/L (˜1.5 μM) in experiments in immunocompetent animals with or without gemcitabine 25 mg/kg twice weekly depending on experimental design.

Axl = target: T1, Axl (Homo sapiens, UniProt P30530); assay: Phosphorylated Axl in Panc-1 cells (western blot, immunofluorescence); assay type: cell-based; conditions: overnight, 1% serum, 2 μM
T1 construct: Lysates were probed for total Axl (tAxl) and phosphorylated Axl (pAxl); endogenous in cells; host or cells: Panc-1
T1 sequence (P30530 26-894): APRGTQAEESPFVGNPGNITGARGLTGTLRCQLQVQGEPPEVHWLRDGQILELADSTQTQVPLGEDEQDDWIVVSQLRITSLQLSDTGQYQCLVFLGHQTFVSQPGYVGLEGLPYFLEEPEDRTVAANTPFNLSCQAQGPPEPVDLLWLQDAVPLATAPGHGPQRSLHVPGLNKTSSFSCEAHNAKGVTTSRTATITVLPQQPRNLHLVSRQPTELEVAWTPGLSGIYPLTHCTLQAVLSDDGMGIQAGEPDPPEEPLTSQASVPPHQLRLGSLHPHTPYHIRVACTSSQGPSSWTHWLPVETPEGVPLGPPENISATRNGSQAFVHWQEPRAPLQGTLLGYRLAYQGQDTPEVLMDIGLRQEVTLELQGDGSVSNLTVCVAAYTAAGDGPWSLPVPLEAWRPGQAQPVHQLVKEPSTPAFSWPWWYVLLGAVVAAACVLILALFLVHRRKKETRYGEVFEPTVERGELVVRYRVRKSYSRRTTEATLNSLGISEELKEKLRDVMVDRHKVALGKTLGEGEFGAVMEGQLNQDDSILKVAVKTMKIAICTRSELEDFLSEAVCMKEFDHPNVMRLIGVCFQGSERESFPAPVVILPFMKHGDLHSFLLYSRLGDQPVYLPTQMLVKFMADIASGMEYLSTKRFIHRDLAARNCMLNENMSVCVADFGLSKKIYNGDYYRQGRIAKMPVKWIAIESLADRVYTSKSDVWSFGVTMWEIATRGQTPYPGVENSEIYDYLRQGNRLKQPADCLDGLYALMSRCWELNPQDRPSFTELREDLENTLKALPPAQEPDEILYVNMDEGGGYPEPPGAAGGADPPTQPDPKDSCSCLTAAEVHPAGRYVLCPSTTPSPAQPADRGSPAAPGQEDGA
Method: (§2) (FIG. 24A) HEK293 cells engineered to stably express recombinant Gas6 were grown in the presence of Vitamin K or Vitamin K+warfarin. Gas6 levels and γ-carboxylation were assayed by immunoblotting conditioned media. Conditioned media from untransfected HEK293 cells was used as a negative control. (FIG. 24B) Panc1 cells were grown overnight in media with 1% serum with no additions (NT), warfarin (2 μM) or BGB324 (2 μM). Lysates were probed for total Axl (tAxl) and phosphorylated Axl (pAxl). (FIG. 24C) Panc1 cells were grown in the presence of control media, Vitamin K, warfarin or warfarin+Vitamin K. The level of phosphorylated Axl (pAXL, red) was determined by immunofluorescence. (FIG. 24D) Panc1 cells were grown overnight in media with 1% serum with no additions (control), warfarin (1 μM), Gas6 (1.3 nM) or Gas6+warfarin. Lysates were probed for phosphorylated Akt (pAkt) and actin. (FIG. 24E) Lysates from Panc1 tumors harvested from mice treated with control or warfarin were probed for expression of tAxl, pAxl, actin, pAKT, tAKT, and cleaved Parp. (FIG. 24F) The effect of warfarin on cell migration was assessed by a ‘scratch’ assay. Monolayers of the indicted cells were wounded with a pipet tip. The cells were incubated in media containing 2% serum+/−warfarin (2 μM) or media containing 2% serum+Gas6 (1.3 nM)+/−warfarin.

AKT = assay: Gas6-induced phosphorylated Akt in Panc1 cells; assay type: cell-based, human; conditions: warfarin 1 μM, Gas6 1.3 nM
Method: as §2

## CC(=O)CC(c1ccccc1)c1c(O)c2ccccc2oc1=O (racemic) [Warfarin]
ASPC
  Fold Reduction of gemcitabine IC50 in presence of warfarin: 8.4 fold
Panc1
  Fold Reduction of gemcitabine IC50 in presence of warfarin: 211 fold
KIC tumors
  primary tumor growth: reduced primary tumor growth
[1]
  augmentation of gemcitabine reduction of primary tumor growth and metastatic control: augmented gemcitabine reduction of primary tumor growth
Axl
  phosphorylation of Axl (pAxl): inhibited basal pAxl levels
AKT
  Gas6-induced activation of AKT: inhibited
